Test results taken from patent US20230104658A1, “METHODS OF INCREASING PROGENITOR CELL PRODUCTION” (Janssen Pharmaceutica NV, priority 2021, published 2023).
Square brackets hold non-standard residues; d marks the D form. 2Nal = N[C@@H](Cc1ccc2ccccc2c1)C(=O)O; Sar = CNCC(=O)O

Legend:
[1] = tested on: Megakaryocytes; experiment: Histology (H&E) megakaryocyte count in sternal bone marrow of healthy mice after single s.c. dose; format: in vivo
Method: (§1) In this study, normal male C57BL/6 mice were subcutaneously injected with RWJ-800088 (TPOm) at 300 μg/kg (Day 0). […]
Further, hematopoietic stem and progenitor cell (HSPC) populations in the femoral marrow were examined by flow cytometry (FIG. 2).

[2] = tested on: Myeloid progenitor cells (MPC); experiment: Flow cytometry of femoral bone marrow, total count/femur: myeloid progenitor cells (Example 1); format: in vivo, mice
Method: as §1
(§2) […] After, the cell pellet was resuspended in 1X ACK lysing buffer (Lonza, 10-548E) to lyse red blood cells. The suspension was filtered through 70 μm nylon mesh and collected for further analysis.
(§3) The bone marrow was further processed to isolate single cell populations. Then, the cells from the bone marrow and blood were subjected to flow cytometry to identify various population, including endothelial cells (EC), EPC, arterial EC, sinusoidal EC, lineage-, c-kit+, Sca-1+(LSK), megakaryocyte progenitors, short-term hematopoietic stem cell (ST-HSC), long-term HSC (LT-HSC), mesenchymal stern cell (MSC), LepR+c-mpl+MSC. The portion of blood sample was also subjected to clonogenic assay to validate the EPC population.
(§4) The cells isolated from the bone marrow and peripheral blood were incubated with
(§5) Live/Dead Zombie dye (Biolegend) in phosphate-buffered saline (PBS) at room temperature for 15 minutes. After, primary antibodies were diluted in 2% fetal bovine serum (FBS)-PBS solution and incubated with cells on ice for 30 minutes. Cells were washed with 2% FBS-PBS solution and incubated with secondary antibodies for 30 minutes. Cells were washed again and acquired on Cytek Aurora spectral cytometer. Analysis was done through FlowJo (Tree Star) software.

[3] = tested on: LSK; experiment: Flow cytometry of femoral bone marrow, total count/femur: LSK cells (Example 1); format: in vivo, mice; settings: after treatment for 13 days
Method: as §1
(§6) Tibias were flushed and digested with 1 mg/mL collagenase IV (Gibco, 17104019) and 2 mg/mL dispase (Gibco, 17105041) in Hank's balanced salt solution (HB SS) (Gibco, 24020117) for a total of 30 minutes at 37° C. with an inversion at 15 minutes. After, the cell pellet was resuspended in 1X ACK lysing buffer (Lonza, 10-548E) to lyse red blood cells. The suspension was filtered through 70 μm nylon mesh and collected for further analysis.
as §3, §4
(§7) Live/Dead Zombie dye (Biolegend) in phosphate-buffered saline (PBS) at room temperature for 15 minutes. After, primary antibodies were diluted in 2% fetal bovine serum (FBS)-PBS solution and incubated with cells on ice for 30 minutes. […]

[4] = tested on: Short-term HSCs; experiment: Flow cytometry of femoral bone marrow, total count/femur: short-term HSCs (Example 1); format: in vivo, mice; settings: after treatment for 13 days
Method: as §1, §2, §3, §4, §5

[5] = tested on: Long-term HSCs; experiment: Flow cytometry of femoral bone marrow, total count/femur: long-term HSCs (Example 1); format: in vivo, mice; settings: only by day 13 after treatment
Method: as §1, §2, §3, §4, §5

[6] = tested on: Endothelial progenitor cells (EPC); experiment: Flow cytometry of femoral bone marrow, total count/femur: endothelial progenitor cells (Example 1); format: in vivo, mice; settings: days 3 to 13 after 300 μg/kg s.c.
Method: as §1, §6, §3, §4, §7

[7] = tested on: Endothelial cells (EC); experiment: Flow cytometry of femoral bone marrow, total count/femur: CD31+ endothelial cells (Example 1); format: in vivo, mice; settings: days 3 to 13 after 300 μg/kg s.c.
Method: In this study, normal male C57BL/6 mice were subcutaneously injected with RWJ-800088 (TPOm) at 300 μg/kg (Day 0). At days 3, 7, 10 and 14, the mice were sacrificed to collect the bone marrow and blood samples.
as §2, §3, §4
Live/Dead Zombie dye (Biolegend) in phosphate-buffered saline (PBS) at room temperature for 15 minutes. After, primary antibodies were diluted in 2% fetal bovine serum (FBS)-PBS solution and incubated with cells on ice for 30 minutes. Cells were washed with 2% FBS-PBS solution and incubated with secondary antibodies for 30 minutes. […]

[8] = tested on: myeloid progenitor cells (MPCs); experiment: Flow cytometry of bone marrow ten days after treatment: MPCs (Example 2); format: in vivo, mice; settings: ten days after 300 μg/kg s.c.; percentage of CD45- cells
Method: (§8) In this study, male C57BL/6 mice (8-10 weeks old) from Jackson Laboratory (Bar Harbor, Me.) were subcutaneously injected with RWJ-800088 (TPOm) at 300 μg/kg or PBS (vehicle). At day 10 after RWJ-800088 injection, the mice were sacrificed to harvest bone marrow and peripheral blood. Another set of groups was intraperitoneally injected with 5 mg/kg of plerixafor (also named AMD3100) from Sigma-Aldrich 1 hour before the sacrifice. The bone marrow was further processed to isolate single cell populations. Then, the cells from bone marrow and blood were subjected to flow cytometry to identify various populations. Bone Marrow Cell Collection
as §6, with “(HBSS; Gibco,” for “(HB SS) (Gibco,”, “After,” for “After, the”, “lx” for “1X”, “100” for “70”
(§9) The cells isolated from the bone marrow and peripheral blood were incubated with Live/Dead Zombie dye (Biolegend) in PBS at room temperature for 15 minutes. After, primary antibodies were diluted in 2% FBS-PBS solution and incubated with cells on ice for 30 minutes. […]

[9] = tested on: hemopoietic stem cells (HSCs); experiment: Flow cytometry of bone marrow ten days after treatment: HSCs (Example 2); format: in vivo, mice; settings: ten days after 300 μg/kg s.c.; percentage of CD45- cells
Method: as §8
as §6, with “(HBSS; Gibco,” for “(HB SS) (Gibco,”, “After,” for “After, the”, “lx” for “1X”, “100” for “70”
as §9

[10] = tested on: Endothelial progenitor cells (EPCs); experiment: Flow cytometry of bone marrow ten days after treatment: EPCs (Example 2); format: in vivo, mice; settings: 10 days after 300 μg/kg s.c.; percentage of CD45- cells
Method: as §8
as §6, with “(HBSS; Gibco,” for “(HB SS) (Gibco,”, “After,” for “After, the”, “lx” for “1X”, “100” for “70”
as §9

Substance: methoxypolyethyleneglyco120000-propionyl-L-Isoleucyl-L-Glutamyl-Glycyl-L-Prolyl-L-Threonyl-L-Leucyl-L-Arginyl-L-Glutaminyl-L-2-Naphthylalanyl-L-Leucyl-L-Alanyl-L-Alanyl-L-Arginyl-Sarcosyl-Ne-(methoxypolyethyleneglyco120000-propionyl-L-Isoleucyl-L-Glutamyl-Glycyl-L-Prolyl-L-Threonyl-L-Leucyl-L-Arginyl-L-Glutaminyl-L-2-Naphthylalanyl-L-Leucyl-L-Alanyl-L-Alanyl-L-Arginyl-Sarcosyl-)-Lysinamide ({methoxypolyethyleneglycol 20000‑propionyl}-IEGPTLRQ[2Nal]LAAR[Sar]K-NH2; also: dimer: second identical mPEG20000-propionyl-peptide-Sar arm on C-terminal Lys Ne) [RWJ-800088]
- Number of megakaryocytes in sternal marrow ([1]; 13 days after treatment, 300 μg/kg s.c.): dropped down to baseline
- Megakaryocytes in sternal marrow relative to naive animals ([1]; days 3 and 6 after 300 μg/kg s.c.): significant increases
- Myeloid progenitor cells (lineage-, c-kit+) in femoral marrow relative to naive ([2]; day 3 after treatment): significant increases
- Myeloid progenitor cells (lineage-, c-kit+) in femoral marrow ([2]; day 6 after treatment): significant decrease
- Myeloid progenitor cells (lineage-, c-kit+) in femoral marrow ([2]; day 13 after treatment): return to baseline
- LSK (lineage-, c-kit+, Sca-1+) population in femoral marrow [3]: significantly increased
- LSK, CD34+ short-term (ST-) HSC population in femoral marrow [4]: significantly increased
- LSK, CD34-, CD48-, CD150+ long-term (LT-) HSCs in femoral marrow [5]: significantly increased
- EPC population in femoral marrow, time course [6]: began increasing on day 3 with a peak on day 6
- EC (CD31+) population in femoral marrow, time course [7]: increased beginning on day 3 and was sustained through day 13
- MPC population in the bone marrow compartment [8]: increases
- HSC population in the bone marrow compartment [9]: increases
- EPC populations in the bone marrow [10]: significant increase
